The test system of experiment [1] is Pseudomonas. Description: Antibacterial activity against Pseudomonas at 5 ug/disk after 24 hr by disk diffusion method. As to conditions: read-out: IZ. The experiment is classed as functional. A general note: In agar diffusion tests the substance spreads into inoculated agar from a disc or well.
Experiment [2] deals with Klebsiella pneumoniae. The experiment is described as follows: Antibacterial activity against Klebsiella pneumoniae at 5 ug/disk after 24 hr by disk diffusion method. As to conditions: read-out: IZ.
The test system of experiment [3] is Shigella flexneri. The experiment is described as follows: Antibacterial activity against Shigella flexneri at 5 ug/disc after 24 hr by disk diffusion method. The experiment is classed as functional. As to conditions: read-out: IZ.
Experiment [4] deals with Salmonella typhi. The experiment is described as follows: Antibacterial activity against Salmonella enterica subsp. enterica serovar Typhi at 5 ug/disk after 24 hr by disk diffusion method. The experiment is classed as functional. As to conditions: read-out: IZ.
Experiment [5] relates to Vibrio cholerae. Description: Antibacterial activity against Vibrio cholerae at 5 ug/disc after 24 hr by disk diffusion method. As to conditions: read-out: IZ. The experiment is classed as functional.
Experiment [6] relates to Staphylococcus aureus. Description: Antibacterial activity against Staphylococcus aureus at 5 ug/disc after 24 hr by disk diffusion method. As to conditions: read-out: IZ.
The test system of experiment [7] is Streptococcus. Description: Antibacterial activity against beta-hemolytic Streptococcus at 5 ug/disk after 24 hr by disk diffusion method. In kind it is functional. As to conditions: read-out: IZ.
Experiment [8] deals with Nannizzia gypsea. Description: Antifungal activity against Microsporum gypseum at 500 ppm after 72 to 96 hr by disk diffusion method. In kind it is functional. As to conditions: read-out: IZ.
Experiment [9] has as its system Nannizzia gypsea. The experiment is described as follows: Antifungal activity against Microsporum gypseum at 200 ppm after 72 to 96 hr by disk diffusion method. The experiment is classed as functional. As to conditions: read-out: IZ.
Experiment [10] has as its system Rhizopus. The experiment is described as follows: Antifungal activity against Rhizopus at 500 ppm after 72 to 96 hr by disk diffusion method. The experiment is classed as functional. As to conditions: read-out: IZ.
Experiment [11] relates to Nannizzia gypsea. Description: Antifungal activity against Microsporum gypseum at 100 ppm after 72 to 96 hr by disk diffusion method. As to conditions: read-out: IZ. The experiment is classed as functional.
Experiment [12] concerns Rhizopus. Description: Antifungal activity against Rhizopus at 200 ppm after 72 to 96 hr by disk diffusion method. The experiment is classed as functional. As to conditions: read-out: IZ.
The test system of experiment [13] is Vibrio cholerae. Description: Antibacterial activity against Vibrio cholerae at 100 ppm after 24 hr by disk diffusion method. The experiment is classed as functional. As to conditions: read-out: IZ.
Experiment [14] has as its system Streptococcus. The experiment is described as follows: Antibacterial activity against beta-hemolytic Streptococcus at 500 ppm after 24 hr by disk diffusion method. The experiment is classed as functional. As to conditions: read-out: IZ.
In experiment [15] the test system is Streptococcus. Description: Antibacterial activity against beta-hemolytic Streptococcus at 100 ppm after 24 hr by disk diffusion method. The experiment is classed as functional, organism-based.
Experiment [16] relates to Streptococcus. The experiment is described as follows: Antibacterial activity against beta-hemolytic Streptococcus at 200 ppm after 24 hr by disk diffusion method. In kind it is functional. As to conditions: read-out: IZ.
Experiment [17] concerns Staphylococcus aureus. The experiment is described as follows: Antibacterial activity against Staphylococcus aureus at 500 ppm after 24 hr by disk diffusion method. In kind it is functional. As to conditions: read-out: IZ.
Experiment [18] deals with Staphylococcus aureus. Description: Antibacterial activity against Staphylococcus aureus at 200 ppm after 24 hr by disk diffusion method. As to conditions: read-out: IZ. The experiment is classed as functional.
Experiment [19] concerns Staphylococcus aureus. The experiment is described as follows: Antibacterial activity against Staphylococcus aureus at 100 ppm after 24 hr by disk diffusion method. The experiment is classed as functional.
For experiment [20], the system named is Rhizopus. Description: Antifungal activity against Rhizopus at 100 ppm after 72 to 96 hr by disk diffusion method. The experiment is classed as functional. As to conditions: read-out: IZ.
For experiment [21], the system named is Mucor. Description: Antifungal activity against Mucor at 500 ppm after 72 to 96 hr by disk diffusion method. As to conditions: read-out: IZ. The experiment is classed as functional.
Experiment [22] has as its system Mucor. The experiment is described as follows: Antifungal activity against Mucor at 200 ppm after 72 to 96 hr by disk diffusion method. The experiment is classed as functional. As to conditions: read-out: IZ.
In experiment [23] the test system is Mucor. Description: Antifungal activity against Mucor at 100 ppm after 72 to 96 hr by disk diffusion method. In kind it is functional.
Experiment [24] relates to Aspergillus flavus. The experiment is described as follows: Antifungal activity against Aspergillus flavus at 500 ppm after 72 to 96 hr by disk diffusion method. The experiment is classed as functional. As to conditions: read-out: IZ.
Experiment [25] has as its system Aspergillus flavus. Description: Antifungal activity against Aspergillus flavus at 200 ppm after 72 to 96 hr by disk diffusion method. In kind it is functional. As to conditions: read-out: IZ.
Experiment [26] has as its system Pseudomonas. The experiment is described as follows: Antibacterial activity against Pseudomonas at 500 ppm after 24 hr by disk diffusion method. In kind it is functional. As to conditions: read-out: IZ.
Experiment [27] concerns Aspergillus flavus. The experiment is described as follows: Antifungal activity against Aspergillus flavus at 100 ppm after 72 to 96 hr by disk diffusion method. In kind it is functional. As to conditions: read-out: IZ.
The subject of experiment [28] is Pseudomonas. The experiment is described as follows: Antibacterial activity against Pseudomonas at 200 ppm after 24 hr by disk diffusion method. As to conditions: read-out: IZ. The experiment is classed as functional.
Experiment [29] concerns Pseudomonas. The experiment is described as follows: Antibacterial activity against Pseudomonas at 100 ppm after 24 hr by disk diffusion method. The experiment is classed as functional.
The subject of experiment [30] is Klebsiella pneumoniae. The experiment is described as follows: Antibacterial activity against Klebsiella pneumoniae at 500 ppm after 24 hr by disk diffusion method. In kind it is functional. As to conditions: read-out: IZ.
Experiment [31] concerns Klebsiella pneumoniae. Description: Antibacterial activity against Klebsiella pneumoniae at 200 ppm after 24 hr by disk diffusion method. The experiment is classed as functional. As to conditions: read-out: IZ.
The subject of experiment [32] is Escherichia coli. Description: Antibacterial activity against Escherichia coli at 500 ppm after 24 hr by disk diffusion method. In kind it is functional. As to conditions: read-out: IZ.
The test system of experiment [33] is Klebsiella pneumoniae. Description: Antibacterial activity against Klebsiella pneumoniae at 100 ppm after 24 hr by disk diffusion method. In kind it is functional. As to conditions: read-out: IZ.
Experiment [34] has as its system Escherichia coli. Description: Antibacterial activity against Escherichia coli at 200 ppm after 24 hr by disk diffusion method. The experiment is classed as functional. As to conditions: read-out: IZ.
For experiment [35], the system named is Escherichia coli. Description: Antibacterial activity against Escherichia coli at 100 ppm after 24 hr by disk diffusion method. In kind it is functional, organism-based.
Experiment [36] concerns Shigella flexneri. The experiment is described as follows: Antibacterial activity against Shigella flexneri at 500 ppm after 24 hr by disk diffusion method. The experiment is classed as functional. As to conditions: read-out: IZ.
Experiment [37] has as its system Shigella flexneri. Description: Antibacterial activity against Shigella flexneri at 200 ppm after 24 hr by disk diffusion method. In kind it is functional. As to conditions: read-out: IZ.
Experiment [38] has as its system Salmonella typhi. Description: Antibacterial activity against Salmonella enterica subsp. enterica serovar Typhi at 200 ppm after 24 hr by disk diffusion method. In kind it is functional. As to conditions: read-out: IZ.
Experiment [39] has as its system Vibrio cholerae. Description: Antibacterial activity against Vibrio cholerae at 500 ppm after 24 hr by disk diffusion method. In kind it is functional. As to conditions: read-out: IZ.
The test system of experiment [40] is Salmonella typhi. The experiment is described as follows: Antibacterial activity against Salmonella enterica subsp. enterica serovar Typhi at 100 ppm after 24 hr by disk diffusion method. In kind it is functional. As to conditions: read-out: IZ.
For experiment [41], the system named is Vibrio cholerae. Description: Antibacterial activity against Vibrio cholerae at 200 ppm after 24 hr by disk diffusion method. In kind it is functional. As to conditions: read-out: IZ.
Experiment [42] has as its system Shigella flexneri. Description: Antibacterial activity against Shigella flexneri at 100 ppm after 24 hr by disk diffusion method. The experiment is classed as functional. As to conditions: read-out: IZ.
Experiment [43] deals with Salmonella typhi. The experiment is described as follows: Antibacterial activity against Salmonella enterica subsp. enterica serovar Typhi at 500 ppm after 24 hr by disk diffusion method. In kind it is functional. As to conditions: read-out: IZ.
The subject of experiment [44] is Nannizzia gypsea. The experiment is described as follows: Antifungal activity against Microsporum gypseum at 100 units/disc after 72 to 96 hr by disc diffusion method. In kind it is functional.
For experiment [45], the system named is Rhizopus. Description: Antifungal activity against Rhizopus at 100 units/disk after 72 to 96 hr by disk diffusion method. The experiment is classed as functional.
Experiment [46] relates to Mucor. Description: Antifungal activity against Mucor at 100 units/disk after 72 to 96 hr by disk diffusion method. In kind it is functional.
Experiment [47] has as its system Aspergillus flavus. The experiment is described as follows: Antifungal activity against Aspergillus flavus at 100 units/disk after 72 to 96 hr by disk diffusion method. The experiment is classed as functional.

Activity calls are given as the source filed them. The calls are words filed in the database; no cut-off is given here.

Regarding `O=C(O)c1cn(C2CC2)c2cc(N3CCNCC3)c(F)cc2c1=O` [CIPROFLOXACIN], the zone of inhibition at 5 µg/disc in experiment [1] stood at 23 mm; in experiment [2], 26 mm; in experiment [3], 23 mm; in experiment [4], 22 mm; in [5], 23 mm; in experiment [6], 25 mm. For the same compound, in experiment [7], the zone of inhibition at 5 µg/disc amounted to 28 mm.
Turning to `Cc1ccc(C2NC(c3ccc(C)cc3)C(C)(C)c3nnsc32)cc1` (configuration not stated), the zone of inhibition at 500 ppm was 30 mm in experiment [8]; 22 mm in experiment [10]; 30 mm in experiment [14]; 30 mm in experiment [17]; 17 mm in [21]; 12 mm in [24]. In addition, the zone of inhibition at 500 ppm in experiment [26] came to 12 mm; in [30] it was 22 mm; in experiment [32] it was 17 mm; in [36], 17 mm; in experiment [39], 17 mm; in [43] it was 12 mm. In addition, the zone of inhibition at 200 ppm in experiment [9] was 22 mm; in experiment [12], 17 mm; in [16], 17 mm; in [18], 22 mm; in [22], 17 mm; in [25], 12 mm. Moreover, the zone of inhibition at 200 ppm was 12 mm in experiment [28]; 17 mm in [31]; 12 mm in [34]; 17 mm in [37]; 12 mm in experiment [38]; 17 mm in experiment [41]. In addition, the zone of inhibition at 100 ppm stood at 17 mm in [11]; 12 mm in experiment [13]; 12 mm in experiment [20]; 12 mm in experiment [27]; 17 mm in experiment [33]; 12 mm in experiment [40]. Moreover, the zone of inhibition at 100 ppm in experiment [42] was 12 mm. The “inhibition zone (IZ)” value in experiment [15], in experiment [19], in experiment [23], in experiment [29] and in experiment [35] was “inactive” in each case.
On to `OC(Cn1cncn1)(Cn1cncn1)c1ccc(F)cc1F` [FLUCONAZOLE], for which the “inhibition zone (IZ)” value in experiment [44], in experiment [45], in experiment [46] and in [47] was 20 mm throughout.

Source of the values: ChEMBL document CHEMBL3045391, “Synthesis and biological evaluation of 5,7-diaryl-4,4-dimethyl-4,5,6,7-tetrahydropyridino[3,4-d]-1,2,3-thiadiazoles” (2007).
